According to patent publication US4175125A, “Method for treating methicillin resistant staphylococcus aureus” (Eli Lilly and Company, priority 1978, dated 1979):
In brackets after ≈: the same amount, converted by molar mass. Like-named read-outs stand apart in the source and are kept apart here.

Tests used:
Type in all cases: cell-based
[1] = test system: Staphylococcus aureus cultures; assay: Agar dilution susceptibility test, phenylthioacetyl cephalosporins vs methicillin resistant S. aureus (Example 9); settings: Staphylococcus aureus
From the text: This example compares the antibiotic activities of three known compounds, methicillin, cephalothin, and cephaloridine, with three compounds from the above examples, in terms of minimum inhibitory concentration (MIC) values in microgram/milliliter units against various isolates of Staphylococcus aureus cultures. The culture numbers and the procedures used to obtain the reported data are disclosed by W. E. Wick and D. A. Preston in their article "Heterogeneous Methicillin-Resistant Staphylococcus Aureus" which appeared in Progress in Antimicrobial And Anticancer Chemotherapy, Proceedings of the 6th International Congress of Chemotherapy, Volume, 1, U. of Tokyo Press, Tokyo, (1970). In these agardilution susceptibility tests, the inocula were diluted to 10^3 bacteria per spot. Cultures 3055 (benzylpenicillin sensitive) and H232 (benzylpenicillin-resistant) are controls. The remaining cultures are methicillin-resistant, and, except for 3136, are clinical isolates. Culture 3136 is a 4th transfer laboratory selected mutant.

[2] = test system: Staphylococcus aureus cultures; assay: Broth dilution MIC in trypticase soy broth, low and high NaCl (Example 10); settings: for MIC: Staphylococcus aureus, TSB
Method: This example compares the antibiotic activities of methicillin, cephalothin and cephaloridine with the compounds of Examples 1, 2 and 3, in broth dilution tests. The MIC values, in μg/ml., are against the same Staphylococcus aureus cultures described in Example 9, except that in this example the cultures were grown in trypticase soy broth (TSB). Growing the cultures in two broth cultures, one having a low (0.5 percent) sodium chloride content and one having a high (5.0 percent) sodium chloride content is said to assist in identifying the methicillin-resistant cultures from those which are not methicillin-resistant. […] See Chabbert, Y. A., 1967 Postgrad. Med. J., 43 (suppl); 40-46. One expects that similar changes in MIC values for this type of culture to other β-lactam antibiotics, e.g., various penicillins and cephalosporins, to have similar implications. […] That is, methicillin-resistant S.aureus cultures are susceptible to the cephalosporin antibiotics used in this invention.

[3] = test system: Staphylococcus aureus cultures; assay: Modified Bauer-Kirby Disc Susceptibility Test (Example 11); design: zone of inhibition: dose or concentration left out as unconfirmed; settings: for zone of inhibition: Staphylococcus aureus; for Change 37°-30°: 30 mg Disc
Method: This example exemplifies the antibiotic activity of 7-[2'-(3"-chloro-4"-fluorophenylthio)acetamido]cephalosporanic acid, a water soluble compound, described in Example 8, against various Staphylococcus aureus cultures, in a modified Bauer-Kirby Disc Susceptibility Test (Bauer, A. W., W. M. M. Kirby, J. C. Sherris, and M. Turck, 1966, Amer. J. Clin. Pathol. 45:493-496). In this test the cultures were incubated at both 37° C. or 30° C. […] 16, 1968, the heterogeneity of methicilllin-resistant S. aureus is manifested by incubation at 30° C.

[4] = culture 3130, table part marked b
[5] = culture 3130, table part marked c
[6] = culture 3131, table part marked b
[7] = culture 3131, table part marked c
[8] = culture 3134, table part marked b
[9] = culture 3134, table part marked c
[10] = culture 3135, table part marked b
[11] = culture 3135, table part marked c
[12] = culture 3136, table part marked b
[13] = culture 3136, table part marked c
[14] = culture 3137, table part marked b
[15] = culture 3137, table part marked c
[16] = culture 3138, table part marked b
[17] = culture 3138, table part marked c
[18] = culture 3139, table part marked b
[19] = culture 3139, table part marked c
[20] = culture (Seattle) 966, table part marked b
[21] = culture (Seattle) 966, table part marked c
[22] = culture S61, table part marked b
[23] = culture S61, table part marked c

CC(=O)OCC1=C(C(=O)O)N2C(=O)[C@@H](NC(=O)Cc3cccs3)[C@H]2SC1 [Cephalothin, cephalothin, reference compound]
MIC ([1]; culture 3055 (control, benzylpenicillin sensitive), table part marked b): < 0.25 µg/mL | MIC ([1]; culture 3055 (control, benzylpenicillin sensitive), table part marked c): < 0.25 µg/mL | MIC [1, 4]: 8 µg/mL (≈ 20.2 µM) | MIC [1, 5]: 64 µg/mL (≈ 161 µM) | MIC [1, 6]: 1 µg/mL (≈ 2.52 µM) | MIC [1, 7]: 32 µg/mL (≈ 80.7 µM) | MIC ([1]; culture 3132, table part marked b): 2 µg/mL (≈ 5.04 µM) | MIC ([1]; culture 3132, table part marked c): 16 µg/mL (≈ 40.4 µM) | MIC ([1]; culture 3133, table part marked b): 2 µg/mL (≈ 5.04 µM) | MIC ([1]; culture 3133, table part marked c): 64 µg/mL (≈ 161 µM) | MIC [1, 8]: 8 µg/mL (≈ 20.2 µM) | MIC [1, 9]: 64 µg/mL (≈ 161 µM) | MIC [1, 10]: 2 µg/mL (≈ 5.04 µM) | MIC [1, 11]: 32 µg/mL (≈ 80.7 µM) | MIC [1, 12]: 2 µg/mL (≈ 5.04 µM) | MIC [1, 13]: 32 µg/mL (≈ 80.7 µM) | MIC [1, 14]: 64 µg/mL (≈ 161 µM) | MIC [1, 15]: 128 µg/mL (≈ 323 µM) | MIC [1, 16]: 8 µg/mL (≈ 20.2 µM) | MIC [1, 17]: 64 µg/mL (≈ 161 µM) | MIC [1, 18]: 1 µg/mL (≈ 2.52 µM) | MIC [1, 19]: 32 µg/mL (≈ 80.7 µM) | MIC [1, 20]: 1 µg/mL (≈ 2.52 µM) | MIC [1, 21]: 32 µg/mL (≈ 80.7 µM) | MIC ([1]; culture H232 (control, benzylpenicillin-resistant), table part marked b): < 0.25 µg/mL | MIC ([1]; culture H232 (control, benzylpenicillin-resistant), table part marked c): < 0.25 µg/mL | MIC ([1]; culture Kavarmark 1138501, table part marked b): 2 µg/mL (≈ 5.04 µM) | MIC ([1]; culture Kavarmark 1138501, table part marked c): 32 µg/mL (≈ 80.7 µM) | MIC [1, 22]: 2 µg/mL (≈ 5.04 µM) | MIC [1, 23]: 64 µg/mL (≈ 161 µM) | difference in MIC values in low versus high salt TSB cultures ([2]; 0.5 percent vs 5.0 percent NaCl, methicillin-resistant S. aureus): fairly wide difference (increase in MIC value from 2 to 64) | MIC ([2]; culture 3055 (control), table part marked b): 0.5 µg/mL (≈ 1.26 µM) | MIC ([2]; culture 3055 (control), table part marked c): 0.5 µg/mL (≈ 1.26 µM) | MIC [2, 4]: 8 µg/mL (≈ 20.2 µM) | MIC [2, 5]: 64 µg/mL (≈ 161 µM) | MIC [2, 6]: 2 µg/mL (≈ 5.04 µM) | MIC [2, 7]: 64 µg/mL (≈ 161 µM) | MIC ([2]; culture 3132 (first column so headed), table part marked b): 2 µg/mL (≈ 5.04 µM) | MIC ([2]; culture 3132 (first column so headed), table part marked c): 64 µg/mL (≈ 161 µM) | MIC ([2]; culture 3132 (second column so headed), table part marked b): 2 µg/mL (≈ 5.04 µM) | MIC ([2]; culture 3132 (second column so headed), table part marked c): 64 µg/mL (≈ 161 µM) | MIC [2, 8]: 32 µg/mL (≈ 80.7 µM) | MIC [2, 9]: 64 µg/mL (≈ 161 µM) | MIC [2, 10]: 2 µg/mL (≈ 5.04 µM) | MIC [2, 11]: 64 µg/mL (≈ 161 µM) | MIC [2, 12]: 2 µg/mL (≈ 5.04 µM) | MIC [2, 13]: 64 µg/mL (≈ 161 µM) | MIC [2, 14]: 64 µg/mL (≈ 161 µM) | MIC [2, 15]: 128 µg/mL (≈ 323 µM) | MIC [2, 16]: 32 µg/mL (≈ 80.7 µM) | MIC [2, 17]: 64 µg/mL (≈ 161 µM) | MIC [2, 18]: 4 µg/mL (≈ 10.1 µM) | MIC [2, 19]: 32 µg/mL (≈ 80.7 µM) | MIC [2, 20]: 2 µg/mL (≈ 5.04 µM) | MIC [2, 21]: 32 µg/mL (≈ 80.7 µM) | MIC ([2]; culture H232 (control), table part marked b): 0.5 µg/mL (≈ 1.26 µM) | MIC ([2]; culture H232 (control), table part marked c): 0.5 µg/mL (≈ 1.26 µM) | MIC ([2]; culture Kavarnick 1138501, table part marked b): 4 µg/mL (≈ 10.1 µM) | MIC ([2]; culture Kavarnick 1138501, table part marked c): 64 µg/mL (≈ 161 µM) | MIC [2, 22]: 8 µg/mL (≈ 20.2 µM) | MIC [2, 23]: 64 µg/mL (≈ 161 µM) | MIC ([2]; culture S, table part marked b): 8 µg/mL (≈ 20.2 µM) | MIC ([2]; culture S, table part marked c): 64 µg/mL (≈ 161 µM) | zone of inhibition ([3]; culture 3055 (penicillin sensitive), 30°, read-out: disc susceptibility (zone) at 30°): > 35 mm | zone of inhibition ([3]; culture 3055 (penicillin sensitive), 37°, read-out: disc susceptibility (zone) at 37°): > 35 mm | zone of inhibition ([3]; culture 3074 (methicillin sensitive, penicillinase producing), 30°, read-out: disc susceptibility (zone) at 30°): 32.1 mm | zone of inhibition ([3]; culture 3074 (methicillin sensitive, penicillinase producing), 37°, read-out: disc susceptibility (zone) at 37°): 31.8 mm | zone of inhibition ([3]; culture 3125 (methicillin resistant), 30°, read-out: disc susceptibility (zone) at 30°): 33.8 mm | zone of inhibition ([3]; culture 3125 (methicillin resistant), 37°, read-out: disc susceptibility (zone) at 37°): 33.4 mm | zone of inhibition ([3]; culture 3130 (methicillin resistant), 30°, read-out: disc susceptibility (zone) at 30°): 20.2 mm | zone of inhibition ([3]; culture 3130 (methicillin resistant), 37°, read-out: disc susceptibility (zone) at 37°): 32.8 mm | zone of inhibition ([3]; culture 3131 (methicillin resistant), 30°, read-out: disc susceptibility (zone) at 30°): 16.6 mm | zone of inhibition ([3]; culture 3131 (methicillin resistant), 37°, read-out: disc susceptibility (zone) at 37°): 29.6 mm | zone of inhibition ([3]; culture 3132 (methicillin resistant), 30°, read-out: disc susceptibility (zone) at 30°): 17.6 mm | zone of inhibition ([3]; culture 3132 (methicillin resistant), 37°, read-out: disc susceptibility (zone) at 37°): 28.6 mm | zone of inhibition ([3]; culture 3133 (methicillin resistant), 30°, read-out: disc susceptibility (zone) at 30°): 12.8 mm | zone of inhibition ([3]; culture 3133 (methicillin resistant), 37°, read-out: disc susceptibility (zone) at 37°): 28.8 mm | zone of inhibition ([3]; culture 3134 (methicillin resistant), 30°, read-out: disc susceptibility (zone) at 30°): 12.1 mm | zone of inhibition ([3]; culture 3134 (methicillin resistant), 37°, read-out: disc susceptibility (zone) at 37°): 27.8 mm | zone of inhibition ([3]; culture 3135 (methicillin resistant), 30°, read-out: disc susceptibility (zone) at 30°): 11.8 mm | zone of inhibition ([3]; culture 3135 (methicillin resistant), 37°, read-out: disc susceptibility (zone) at 37°): 28 mm | zone of inhibition ([3]; culture 3136 (methicillin resistant), 30°, read-out: disc susceptibility (zone) at 30°): 20.8 mm | zone of inhibition ([3]; culture 3136 (methicillin resistant), 37°, read-out: disc susceptibility (zone) at 37°): 35.6 mm | zone of inhibition ([3]; culture 3137 (methicillin resistant), 30°, read-out: disc susceptibility (zone) at 30°): 0 mm | zone of inhibition ([3]; culture 3137 (methicillin resistant), 37°, read-out: disc susceptibility (zone) at 37°): 17.8 mm | zone of inhibition ([3]; culture 3138 (methicillin resistant), 30°, read-out: disc susceptibility (zone) at 30°): 11.3 mm | zone of inhibition ([3]; culture 3138 (methicillin resistant), 37°, read-out: disc susceptibility (zone) at 37°): 26.2 mm | zone of inhibition ([3]; culture 3139 (methicillin resistant), 30°, read-out: disc susceptibility (zone) at 30°): 27 mm | zone of inhibition ([3]; culture 3139 (methicillin resistant), 37°, read-out: disc susceptibility (zone) at 37°): 32 mm | zone of inhibition ([3]; culture 3140 (methicillin resistant), 30°, read-out: disc susceptibility (zone) at 30°): 10.4 mm | zone of inhibition ([3]; culture 3140 (methicillin resistant), 37°, read-out: disc susceptibility (zone) at 37°): 29.7 mm | zone of inhibition ([3]; culture H232 (methicillin sensitive, penicillinase producing), 30°, read-out: disc susceptibility (zone) at 30°): 33.2 mm | zone of inhibition ([3]; culture H232 (methicillin sensitive, penicillinase producing), 37°, read-out: disc susceptibility (zone) at 37°): 33.4 mm | Change 37°-30° ([3]; culture 3074): +0.3 mm | Change 37°-30° ([3]; culture 3130): -12.6 mm | Change 37°-30° ([3]; culture 3131): -13.0 mm | Change 37°-30° ([3]; culture 3132): -11.0 mm | Change 37°-30° ([3]; culture 3133): -16.0 mm | Change 37°-30° ([3]; culture 3134): -15.7 mm | Change 37°-30° ([3]; culture 3135): -16.2 mm | Change 37°-30° ([3]; culture 3136): -14.8 mm | Change 37°-30° ([3]; culture 3137): > 17.8 mm | Change 37°-30° ([3]; culture 3138): -14.9 mm | Change 37°-30° ([3]; culture 3139): -5.0 mm | Change 37°-30° ([3]; culture 3140): -13.3 mm | Change 37°-30° ([3]; culture H232): -0.2 mm
